This is an account of results in US11293024B2, “Antisense antibacterial compounds and methods” (priority 2014, dated 2022).

The test system of one data set is P. aeruginosa PAO1. The data set can be described thus: Synergy assay with Piperacillin Tazobactam. Format: cell-based, Pseudomonas aeruginosa. The note with it: PPMO 32 to 0.5 μM; 2 μg/mL PMBN; 18 hours at 37° C. The method, then: A synergy assay was performed with Piperacillin Tazobactam and AcpP PPMO #35 in P. aeruginosa PAO1. 1×10^6 cfu/mL of PAO1 was inoculated into Mueller Hinton II media in an 96-well plate in the presence of […] PMBN. Piperacillin Tazobactam (PT) was serial diluted by half dilutions in the lateral direction from 128 to 0.124 μg/mL. AcpP PPMO #35 was vertically diluted in the same manner from 32 to 0.5 μM. The 96-well plate was then incubated for 18 hours at 37° C.
A synergy assay was performed with Piperacillin Tazobactam and AcpP PPMO #35 in P. aeruginosa PAO1. 1×10^6 cfu/mL of PAO1 was inoculated into Mueller Hinton II media in an 96-well plate in the presence of 2 μg/mL PMBN. Piperacillin Tazobactam (PT) was serial diluted by half dilutions in the lateral direction from 128 to 0.124 μg/mL. AcpP PPMO #35 was vertically diluted in the same manner from 32 to 0.5 μM. The 96-well plate was then incubated for 18 hours at 37° C.

The subject of data set [1] is existing P. aeruginosa PAO1 biofilm. As to the kind of experiment: Biofilm reduction in MBEC plate (crystal violet). It is filed as cell-based, Pseudomonas aeruginosa. Conditions: at 10, 5, 2.5, and 1 μM; 2 μg/mL PMBN; 48 hour biofilm. On the procedure: P. aeruginosa PAO1 (5×10^5 cfu/mL) was grown in an MBEC plate for 24 hours. At 24 hours, the pegs were moved to a new 96-well plate containing fresh MHII media and either scrambled, RpsJ, or AcpP PPMO at the indicated concentrations. All wells containing PPMOs (including Scrambled) contained 2 μg/mL of PMBN. The pegs were again moved to new plates with or without PPMOs at 32 and 40 hours. Pegs were processed for crystal violet or visualized with microscopy at 48 hours. […] FIGS. 7B-7D: Spinning Disk confocal microscopy images of 48 hour biofilm treated with (FIG. 7B) 10 μM Scr PPMO #42, (FIG. 7C) 2.5 μM AcpP PPMO #35, (FIG. 7D) 10 μM AcpP PPMO #35. Green channel is PAO1 GFP; Red channel is biofilm stained with 200 μg/mL of Concanavalin A, Alexafluor 647 conjugate.
Pseudomonas aeruginosa Biofilm Reduction in MBEC Plate Protocol
• 1. 10 mL of MH is inoculated with a single colony and incubated at 37° C. and ˜250 rpm for about 5 hours. • 2. The sample is centrifuged for 10 minutes at ˜4000 rpm at 4° C., the supernatant decanted and the pellet resuspended in 10 mL of 150 mM NaCl or PBS. This step is repeated to wash the pellet 3 times. • 3. […] The OD600 of the sample is taken and cfu/mL is calculated. […]
1. […] The final OD570 of the 10× dilution of solution should be approximately 0.500 absorbance. […]
2. OD reading: The OD570 for the 96-well plate from step 1e is determined. […]

On to “PPMO #35: AcpP PMO CTCATACCTTG, 5′ (RXR)4XB CPP, 3′ H”, for which, in the data set with P. aeruginosa PAO1, the “MIC of Piperacillin Tazobactam in combination with PPMO” value is on record as “decreasing MIC values as the PPMO concentration increased”. For the same substance, the “reduction of existing biofilm (crystal violet)” value in data set [1] is “statistically significant reduction of biofilm”.
